This note sets out measurements from patent publication US20250313900A1, “COMPOSITIONS AND THERAPEUTIC AGENTS FOR MODULATING INFLAMMATORY RESPONSES ON BOTH TUMOR AND IMMUNE CELLS” (THE METHODIST HOSPITAL, priority 2022, published 2025).

One experiment has as its system MHC II. Particulars: IFNγ stimulation.
Another experiment deals with EGFR. The experiment in a line: EGFR levels in LLC CMTM4 KD cells after lipid raft depletion. It counts as cell-based, murine. Here is the method:
Flotillin-1 was used as a marker of lipid raft and vinculin was used as a maker of the non-raft fraction. […] FIGS. 8D and 8E show LLC CMTM4 KD cells were treated with MβCD and real-time PCR (8D) and western blot (8E) were performed to determine EGFR levels. *p<0.05. FIG. 8F show 293T cells were transfected with CMTM4 WT-mcherry (upper) or CMTM4 MT-mcherry (lower) with EGFR-EGFP and then, cells were treated with EGF for 1 hour. Representative confocal images are shown. FIG. 8G show RNAseq data showing Rab expression between control and CMTM4 KD LLC cells. FIGS. 8H and 8I show Rab expression in control and CMTM4 KD LLC cells were determined by qRT-PCR (H) and western blot (8I). FIGS. 8J, 8K, and 8L show 293T cells were transfected with CMTM4-EGFP and Rab4 (mCherry), Rab5 (mCherry), or Rab11 (mCherry), and then, cells were treated with EGF for 1 hour. Representative confocal images are shown. Pearson correlation coefficient (PCC) was measured from 20 individual cells. FIGS. 8M and 8N show EGFR-EGFR and Lamp-1 RFP were transfected to LLC control and CMTM4 KD cells. Confocal imaging was taken before (8M) and after (8N) treatment with EGF. Pearson correlation coefficient (PCC) was measured from 20 individual cells. *p<0.05, **p<0.01, ***P<0.001, ****P<0.0001. Scale bar: 3 μm. […]

Experiment [1] addresses T1, Tumor necrosis factor receptor-associated factor-6 (TRAF6) (in HCC827-CT cells) (human, UniProt Q9Y4K3 1-522).
T1 sequence (looked up): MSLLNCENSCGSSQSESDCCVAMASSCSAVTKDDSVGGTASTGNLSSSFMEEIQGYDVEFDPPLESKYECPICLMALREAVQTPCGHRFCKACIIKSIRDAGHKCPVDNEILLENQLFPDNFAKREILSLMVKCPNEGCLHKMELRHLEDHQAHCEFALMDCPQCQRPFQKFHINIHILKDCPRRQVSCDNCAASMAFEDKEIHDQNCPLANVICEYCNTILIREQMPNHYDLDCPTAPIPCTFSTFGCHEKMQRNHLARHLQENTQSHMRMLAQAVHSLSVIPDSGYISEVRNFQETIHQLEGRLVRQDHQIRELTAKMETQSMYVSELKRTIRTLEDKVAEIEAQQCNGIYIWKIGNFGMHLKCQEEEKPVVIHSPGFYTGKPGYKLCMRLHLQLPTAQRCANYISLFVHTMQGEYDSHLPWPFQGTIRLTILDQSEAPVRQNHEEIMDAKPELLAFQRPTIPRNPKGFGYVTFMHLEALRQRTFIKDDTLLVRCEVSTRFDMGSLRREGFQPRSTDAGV
The experiment in a line: co-immunoprecipitation and western blot, HCC827-CT cells.

On to `CCN(CC)CCCC(C)Nc1ccnc2cc(Cl)ccc12` (stereo not shown) [chloroquine], for which, in the experiment with MHC II, the “higher levels of surface MHC class II in CMTM4 KO cells” value was “abolished”. For “methyl-beta-cyclodextrin [methyl-beta-cyclodextrin (MβCD)]”, in the experiment on EGFR (real-time PCR), the “EGFR mRNA level” value is given as “increased”. For the same molecule, in the experiment with EGFR (western blot), the EGFR protein level entry is recorded as “increased”.

B1: CMTM6 (in HCC827-CT cells) (other, human, UniProt Q9NX76 1-183, looked up)
chain: MENGAVYSPTTEEDPGPARGPRSGLAAYFFMGRLPLLRRVLKGLQLLLSLLAFICEEVVSQCTLCGGLYFFEFVSCSAFLLSLLILIVYCTPFYERVDTTKVKSSDFYITLGTGCVFLLASIIFVSTHDRTSAEIAAIVFGFIASFMFLLDFITMLYEKRQESQLRKPENTTRAEALTEPLNA
Regarding B1, the binding result in experiment [1] was “no binding”.
